Consider eight compounds from patent US20230295234A1, “ANTIMICROBIAL PEPTIDOMIMETICS” (SPEXIS AG, priority 2020, published 2023).

Molecules are shown by their SMILES. Peptide text beside a SMILES is read from it.

Series [1] concerns Escherichia coli ATCC 25922. The note with it: ATCC 25922. The method, boiled down:
(§1)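 Activity is measured against peptides serially diluted two-fold in water with 0.002% final Polysorbate 80. The cells are in cation-adjusted MHII broth at roughly 5×10^5 CFU/mL, prepared from a 0.5 McFarland suspension in 0.85% NaCl.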

For series [2], the system named is Escherichia coli MCR-1 Af 45. The note with it: MCR-1 Af 45. The method, boiled down:
as §1

Series [3] relates to Klebsiella pneumoniae SSI3010. The note with it: SSI3010. The method, boiled down:
as §1

The subject of series [4] is human red blood cells (hRBC). The series is described as follows: Hemolysis of human red blood cells. The class given is cell-based. The note with it: red cells of human, 1 h. The method, boiled down:
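PBS-washed human red blood cells (20% v/v) were incubated with peptide at 200 μg/mL for 1 h at 37 °C with shaking. Supernatant OD was read at 540 nm after 8-fold dilution. Hemolysis is expressed as percent of the water control.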

In the case of `CC[C@H](C)[C@H](NC(=O)[C@@H](NC(=O)[C@@H]1CCCN1C(=O)[C@@H](NC(=O)[C@@H]1C[C@@H](N)CN1C(=O)[C@H](CCCCN)NC(=O)[C@@H](N)CCCCN)C(C)C)[C@@H](C)CC)C(=O)N[C@@H](Cc1ccc(O)cc1)C(=O)N[C@@H]1C(=O)N[C@@H](CC(N)=O)C(=O)N[C@@H](CCCNC(=N)N)C(=O)N[C@@H](CCN)C(=O)N[C@@H]([C@@H](C)O)C(=O)N[C@H](CCN)C(=O)N[C@@H](CCCCN)C(=O)N[C@H](C(=O)N[C@@H](CCN)C(=O)N[C@@H](CCCNC(=N)N)C(=O)N[C@@H](Cc2ccc(O)cc2)C(=O)O)CSSC1(C)C` [Example 114, Lys-Lys-Pro((4R)NH2)-Val-Pro-Ile-Ile-Tyr-Pen-Asn-Arg-^Dab-Thr-^DDab-Lys-Cys-Dab-Arg-Tyr] (HELM PEPTIDE1{K.K.[N[C@@H]1C[C@@H](C(=O)[*:2])N([*:1])C1].V.P.I.I.Y.[Pen].N.R.[Dab].T.[NCC[C@@H](N[*:1])C(=O)[*:2]].K.C.[Dab].R.Y}$PEPTIDE1,PEPTIDE1,9:R3-16:R3$$$V2.0), the “Escherichia coli ATCC 25922 MIC” value in series [1] amounted to 0.0625 µg/mL. The “Escherichia coli MCR-1 Af 45 MIC” value in series [2] worked out at 0.0625 µg/mL. The “Klebsiella pneumoniae SSI3010 MIC” value in series [3] amounted to 0.0625 µg/mL. Moreover, the “Hemolysis at 0.2 g/L” value in series [4] was 0%.
As for `CC[C@H](C)[C@H](NC(=O)[C@@H]1C[C@@H](N)CN1C(=O)[C@@H](NC(=O)[C@@H]1CCCN1C(=O)[C@H](CCCCN)NC(=O)[C@@H](N)CCCCN)C(C)C)C(=O)N[C@@H](CCCNC(=N)N)C(=O)N[C@@H](Cc1ccc(O)cc1)C(=O)N[C@@H]1C(=O)N[C@@H](CC(N)=O)C(=O)N[C@@H](CCCNC(=N)N)C(=O)N[C@@H](CCN)C(=O)N[C@@H]([C@@H](C)O)C(=O)N[C@H](CCN)C(=O)N[C@@H](CCCCN)C(=O)N[C@H](C(=O)N[C@@H](CCN)C(=O)N[C@@H](CCCNC(=N)N)C(=O)N[C@@H](Cc2ccc(O)cc2)C(=O)O)CSSC1(C)C` [Example 115, Lys-Lys-Pro-Val-Pro((4R)NH2)-Ile-Arg-Tyr-Pen-Asn-Arg-^Dab-Thr-^DDab-Lys-Cys-Dab-Arg-Tyr] (HELM PEPTIDE1{K.K.P.V.[N[C@@H]1C[C@@H](C(=O)[*:2])N([*:1])C1].I.R.Y.[Pen].N.R.[Dab].T.[NCC[C@@H](N[*:1])C(=O)[*:2]].K.C.[Dab].R.Y}$PEPTIDE1,PEPTIDE1,9:R3-16:R3$$$V2.0), the “Escherichia coli ATCC 25922 MIC” value in series [1] was 0.0625 µg/mL. Further, the “Escherichia coli MCR-1 Af 45 MIC” value in series [2] amounted to 0.125 µg/mL. In addition, the “Klebsiella pneumoniae SSI3010 MIC” value in series [3] was 0.25 µg/mL. Moreover, the “Hemolysis at 0.2 g/L” value in series [4] was 0%.
For `CC[C@H](C)[C@H](NC(=O)[C@@H](NC(=O)[C@@H]1C[C@@H](O)CN1C(=O)[C@@H](NC(=O)[C@@H]1C[C@@H](O)CN1C(=O)[C@H](CCCCN)NC(=O)[C@@H](N)CCCCN)C(C)C)[C@@H](C)CC)C(=O)N[C@@H](Cc1ccc(O)cc1)C(=O)N[C@@H]1C(=O)N[C@@H](CC(N)=O)C(=O)N[C@@H](CCCNC(=N)N)C(=O)N[C@@H](CCN)C(=O)N[C@@H]([C@@H](C)O)C(=O)N[C@H](CCN)C(=O)N[C@@H](CCCCN)C(=O)N[C@H](C(=O)N[C@@H](CCN)C(=O)N[C@@H](CCCNC(=N)N)C(=O)N[C@@H](Cc2ccc(O)cc2)C(=O)O)CSSC1(C)C` [Example 116, Lys-Lys-Hyp-Val-Hyp-Ile-Ile-Tyr-Pen-Asn-Arg-Dab-Thr-^DDab-Lys-Cys-Dab-Arg-Tyr] (HELM PEPTIDE1{K.K.[Hyp].V.[Hyp].I.I.Y.[Pen].N.R.[Dab].T.[NCC[C@@H](N[*:1])C(=O)[*:2]].K.C.[Dab].R.Y}$PEPTIDE1,PEPTIDE1,9:R3-16:R3$$$V2.0), in that order: 0.0625 µg/mL, 0.0625 µg/mL, 0.125 µg/mL and 0%.
For `CC[C@H](C)[C@H](NC(=O)[C@@H](NC(=O)[C@@H]1C[C@@H](O)CN1C(=O)[C@@H](NC(=O)[C@@H]1C[C@@H](O)CN1C(=O)[C@H](CCCCN)NC(=O)[C@@H](N)CCCCN)C(C)C)[C@@H](C)CC)C(=O)N[C@@H](Cc1ccc(O)cc1)C(=O)N[C@H]1CSSC[C@@H](C(=O)N[C@@H](CCN)C(=O)N[C@@H](CCCNC(=N)N)C(=O)N[C@@H](Cc2ccc(O)cc2)C(=O)O)NC(=O)[C@H](CCCCN)NC(=O)[C@@H](CCN)NC(=O)[C@H]([C@@H](C)O)NC(=O)[C@H](CCN)NC(=O)[C@H](CCCNC(=N)N)NC(=O)[C@H](CC(N)=O)NC1=O` [Example 117, Lys-Lys-Hyp-Val-Hyp-Ile-Ile-Tyr-Cys-Asn-Arg-Dab-Thr-^DDab-Lys-Cys-Dab-Arg-Tyr] (HELM PEPTIDE1{K.K.[Hyp].V.[Hyp].I.I.Y.C.N.R.[Dab].T.[NCC[C@@H](N[*:1])C(=O)[*:2]].K.C.[Dab].R.Y}$PEPTIDE1,PEPTIDE1,9:R3-16:R3$$$V2.0), in that order: 0.03125 µg/mL, 0.0625 µg/mL, 0.125 µg/mL and 0%.
The corresponding values for `CC[C@H](C)[C@H](NC(=O)[C@@H]1C[C@@H](O)CN1C(=O)[C@@H](NC(=O)[C@@H]1CCCN1C(=O)[C@H](CCCCN)NC(=O)[C@@H](N)CCCCN)C(C)C)C(=O)N[C@H](C(=O)N[C@@H](Cc1ccc(O)cc1)C(=O)N[C@@H]1C(=O)N[C@@H](CC(N)=O)C(=O)N[C@@H](CCCNC(=N)N)C(=O)N[C@@H](CCN)C(=O)N[C@@H]([C@@H](C)O)C(=O)N[C@H](CCN)C(=O)N[C@@H](CCCCN)C(=O)N[C@H](C(=O)N[C@@H](CCN)C(=O)N[C@@H](CCCNC(=N)N)C(=O)N[C@@H](Cc2ccc(O)cc2)C(=O)O)CSSC1(C)C)[C@@H](C)O` [Example 118, Lys-Lys-Pro-Val-Hyp-Ile-Thr-Tyr-Pen-Asn-Arg-Dab-Thr-^DDab-Lys-Cys-Dab-Arg-Tyr] (HELM PEPTIDE1{K.K.P.V.[Hyp].I.T.Y.[Pen].N.R.[Dab].T.[NCC[C@@H](N[*:1])C(=O)[*:2]].K.C.[Dab].R.Y}$PEPTIDE1,PEPTIDE1,9:R3-16:R3$$$V2.0) are 0.0625 µg/mL, 0.0625 µg/mL, 0.125 µg/mL and 0%.
In the case of `CC[C@H](C)[C@H](NC(=O)[C@@H]1C[C@@H](O)CN1C(=O)[C@@H](NC(=O)[C@@H]1CCCN1C(=O)[C@H](CCCCN)NC(=O)[C@@H](N)CCCCN)C(C)C)C(=O)N[C@H](C(=O)N[C@@H](Cc1ccc(O)cc1)C(=O)N[C@H]1CSSC[C@@H](C(=O)N[C@@H](CCN)C(=O)N[C@@H](CCCNC(=N)N)C(=O)N[C@@H](Cc2ccc(O)cc2)C(=O)O)NC(=O)[C@H](CCCCN)NC(=O)[C@@H](CCN)NC(=O)[C@H]([C@@H](C)O)NC(=O)[C@H](CCN)NC(=O)[C@H](CCCNC(=N)N)NC(=O)[C@H](CC(N)=O)NC1=O)[C@@H](C)O` [Example 119, Lys-Lys-Pro-Val-Hyp-Ile-Thr-Tyr-Cys-Asn-Arg-Dab-Thr-^DDab-Lys-Cys-Dab-Arg-Tyr] (HELM PEPTIDE1{K.K.P.V.[Hyp].I.T.Y.C.N.R.[Dab].T.[NCC[C@@H](N[*:1])C(=O)[*:2]].K.C.[Dab].R.Y}$PEPTIDE1,PEPTIDE1,9:R3-16:R3$$$V2.0), the “Escherichia coli ATCC 25922 MIC” value in series [1] was 0.03125 µg/mL. Further, the “Escherichia coli MCR-1 Af 45 MIC” value in series [2] was determined as 0.03125 µg/mL. Further, the “Klebsiella pneumoniae SSI3010 MIC” value in series [3] amounted to 0.0625 µg/mL. Besides, the “Hemolysis at 0.2 g/L” value in series [4] came to 1%.
Consider `CC[C@H](C)[C@H](NC(=O)[C@@H]1C[C@@H](O)CN1C(=O)[C@@H](NC(=O)[C@@H]1C[C@@H](O)CN1C(=O)[C@H](CCCCN)NC(=O)[C@@H](N)CCCCN)C(C)C)C(=O)N[C@H](C(=O)N[C@@H](Cc1ccc(O)cc1)C(=O)N[C@@H]1C(=O)N[C@@H](CC(N)=O)C(=O)N[C@@H](CCCNC(=N)N)C(=O)N[C@@H](CCN)C(=O)N[C@@H]([C@@H](C)O)C(=O)N[C@H](CCN)C(=O)N[C@@H](CCCCN)C(=O)N[C@H](C(=O)N[C@@H](CCN)C(=O)N[C@@H](CCCNC(=N)N)C(=O)N[C@@H](Cc2ccc(O)cc2)C(=O)O)CSSC1(C)C)[C@@H](C)O` [Example 120, Lys-Lys-Hyp-Val-Hyp-Ile-Thr-Tyr-Pen-Asn-Arg-Dab-Thr-^DDab-Lys-Cys-Dab-Arg-Tyr] (HELM PEPTIDE1{K.K.[Hyp].V.[Hyp].I.T.Y.[Pen].N.R.[Dab].T.[NCC[C@@H](N[*:1])C(=O)[*:2]].K.C.[Dab].R.Y}$PEPTIDE1,PEPTIDE1,9:R3-16:R3$$$V2.0), for which the “Escherichia coli ATCC 25922 MIC” value in series [1] was found to be 0.0625 µg/mL. For the same compound, the “Escherichia coli MCR-1 Af 45 MIC” value in series [2] was determined as 0.125 µg/mL. In addition, in series [3], the “Klebsiella pneumoniae SSI3010 MIC” value is 0.125 µg/mL. For the same compound, the “Hemolysis at 0.2 g/L” value in series [4] is 0%.
In the case of `CC[C@H](C)[C@H](NC(=O)[C@@H]1C[C@@H](O)CN1C(=O)[C@@H](NC(=O)[C@@H]1C[C@@H](O)CN1C(=O)[C@H](CCCCN)NC(=O)[C@@H](N)CCCCN)C(C)C)C(=O)N[C@H](C(=O)N[C@@H](Cc1ccc(O)cc1)C(=O)N[C@H]1CSSC[C@@H](C(=O)N[C@@H](CCN)C(=O)N[C@@H](CCCNC(=N)N)C(=O)N[C@@H](Cc2ccc(O)cc2)C(=O)O)NC(=O)[C@H](CCCCN)NC(=O)[C@@H](CCN)NC(=O)[C@H]([C@@H](C)O)NC(=O)[C@H](CCN)NC(=O)[C@H](CCCNC(=N)N)NC(=O)[C@H](CC(N)=O)NC1=O)[C@@H](C)O` [Example 121, Lys-Lys-Hyp-Val-Hyp-Ile-Thr-Tyr-Cys-Asn-Arg-Dab-Thr-^DDab-Lys-Cys-Dab-Arg-Tyr] (HELM PEPTIDE1{K.K.[Hyp].V.[Hyp].I.T.Y.C.N.R.[Dab].T.[NCC[C@@H](N[*:1])C(=O)[*:2]].K.C.[Dab].R.Y}$PEPTIDE1,PEPTIDE1,9:R3-16:R3$$$V2.0), the “Escherichia coli ATCC 25922 MIC” value in series [1] turned out to be 0.03125 µg/mL. In addition, the “Escherichia coli MCR-1 Af 45 MIC” value in series [2] was 0.0625 µg/mL. Moreover, the “Klebsiella pneumoniae SSI3010 MIC” value in series [3] was 0.125 µg/mL. Also, the “Hemolysis at 0.2 g/L” value in series [4] amounted to 0%.
